US20130122541A1, “MICROORGANISM PRODUCTION OF HIGH-VALUE CHEMICAL PRODUCTS, AND RELATED COMPOSITIONS, METHODS AND SYSTEMS” (The Regents of the University of Colorado, priority 2010, published 2013)
Values after ≈ are worked out from the molar mass of the structure shown.

Legend:
[1] = test system: wild-type E. coli BW25113; assay: Growth response to 3-HP (toleragram, OD600, doublings over 24 h), E. coli aerobic; assay type: cell-based; details: aerobic condition, FIG. 15B
Procedure: Overnight cultures of wild-type E. coli BW25113 were grown in triplicate in 5 mL standard LB medium. 100 uL of overnight cultures were used to inoculate triplicate 5 mL samples of M9 minimal medium+3HP, containing 47.7 mM Na2HPO4, 22 mM KH2PO4, 8.6 mM NaCl, 18.7 mM NH4Cl, 2 mM MgSO4, 0.1 mM CaCl2, and 0.4% glucose, with 3HP concentrations ranging from 0-50 g/L. Starting OD600 ranged from 0.02-0.08. Cultures were incubated at 37 C for about 24 hours, and OD600 was recorded every 1-2 hours for the first 8 hours with a final OD600 recorded at about 24 hours. Maximum specific growth rates (μmax) were calculated by determining the optimal fit of exponential trend lines with OD data for the evaluation period. Specific changes in OD600 over approximately 24 hours (Δ24 hrOD600) were calculated as the difference in t=24 hr and t=0 optical density, Δ24hOD600=(ODt=24)−(ODt=0). Specific number of doublings (Nd) were calculated by solving for N in the equation 2^N=(ODt=24)/(ODt=0).

[2] = 3-HP preparation: neutralisation of commercial 3-HP to pH 7.0, observation of insoluble matter; assay type: physicochemical
Text: (§1) 3-HP was obtained from TCI America (Portland, Oreg.). Significant acrylic acid and 2-oxydipropionic contamination was observed via HPLC analysis. Samples were subsequently treated by diethyl ether extraction to remove acrylic acid and a portion of the 2-oxydipropionic contaminants. Samples were then neutralized with 10 M NaOH to a final pH of 7.0. […] The working stock solution was used for the selection and MIC evaluations in this example.
as §1, with “selection, growth rates” for “selection”

In the case of `O=C(O)CCO` [3-HP, 3-hydroxypropionic acid], the “3-HP concentration at which a dramatic reduction in cell density (OD600) at 24 hours starts” value [1] is reported as 30 g/L, the “3-HP concentration in excess of which considerable 3-HP polymerization was observed at neutral pH” value ([2]; commercial 3-HP (TCI America), ether extracted, neutralized with 10 M NaOH to pH 7.0) is reported as “approximately 35 g/L” and the solubility ([2]; pH 7, aqueous buffer) is reported as about 35 mg/mL (≈ 389 mM).
